According to the supplement of paper PMC10307832:

Key:
Assay in all cases: relative viability (nuclei count vs DMSO), 5 days (fraction); higher = more cells survive
Omipalisib + Crizotinib = compound: COc1ncc(-c2ccc3nccc(-c4ccnnc4)c3c2)cc1NS(=O)(=O)c1ccc(F)cc1F [Omipalisib] + C[C@@H](Oc1cc(-c2cnn(C3CCNCC3)c2)cnc1N)c1c(Cl)ccc(F)c1Cl [Crizotinib] (partner 1 µM)
In short: (§1)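 Dosing by pin tool came one day after lung cancer cell lines were seeded in 1536-well plates, using either one drug or a fixed anchor-drug dose plus five library-drug doses (not always all listed) in √10 steps. After 5 days, nuclei were counted on 4× images. Relative viability is treated-well nuclei count divided by vehicle-well nuclei count, and values are medians of duplicate plates.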

Omipalisib + Foretinib = compound: COc1ncc(-c2ccc3nccc(-c4ccnnc4)c3c2)cc1NS(=O)(=O)c1ccc(F)cc1F [Omipalisib] + COc1cc2c(Oc3ccc(NC(=O)C4(C(=O)Nc5ccc(F)cc5)CC4)cc3F)ccnc2cc1OCCCN1CCOCC1 [Foretinib] (partner 0.25 µM)
In short: as §1

Omipalisib + Pemetrexed = compound: COc1ncc(-c2ccc3nccc(-c4ccnnc4)c3c2)cc1NS(=O)(=O)c1ccc(F)cc1F [Omipalisib] + Nc1nc2[nH]cc(CCc3ccc(C(=O)N[C@@H](CCC(=O)O)C(=O)O)cc3)c2c(=O)[nH]1 [Pemetrexed] (partner 0.2 µM)
In short: as §1

Omipalisib + Phenformin = compound: COc1ncc(-c2ccc3nccc(-c4ccnnc4)c3c2)cc1NS(=O)(=O)c1ccc(F)cc1F [Omipalisib] + N=C(N)NC(=N)NCCc1ccccc1 [Phenformin] (partner 250 µM)
In short: as §1

Omipalisib + Linsitinib = compound: COc1ncc(-c2ccc3nccc(-c4ccnnc4)c3c2)cc1NS(=O)(=O)c1ccc(F)cc1F [Omipalisib] + C[C@]1(O)C[C@@H](c2nc(-c3ccc4ccc(-c5ccccc5)nc4c3)c3c(N)nccn32)C1 [Linsitinib] (partner 1 µM)
In short: as §1

Omipalisib + Trametinib = compound: COc1ncc(-c2ccc3nccc(-c4ccnnc4)c3c2)cc1NS(=O)(=O)c1ccc(F)cc1F [Omipalisib] + CC(=O)Nc1cccc(-n2c(=O)n(C3CC3)c(=O)c3c(Nc4ccc(I)cc4F)n(C)c(=O)c(C)c32)c1 [Trametinib] (partner 0.02 µM)
In short: as §1

Row | Cell Line | relative viability (Omipalisib + Crizotinib; first compound 0.0003 µM) | relative viability (Omipalisib + Crizotinib; first compound 0.003 µM) | relative viability (Omipalisib + Crizotinib; first compound 0.03 µM) | relative viability (Omipalisib + Foretinib; first compound 0.0003 µM) | relative viability (Omipalisib + Foretinib; first compound 0.003 µM) | relative viability (Omipalisib + Foretinib; first compound 0.03 µM) | relative viability (Omipalisib + Pemetrexed; first compound 0.0003 µM) | relative viability (Omipalisib + Pemetrexed; first compound 0.003 µM) | relative viability (Omipalisib + Pemetrexed; first compound 0.03 µM) | relative viability (Omipalisib + Phenformin; first compound 0.0003 µM) | relative viability (Omipalisib + Phenformin; first compound 0.003 µM) | relative viability (Omipalisib + Phenformin; first compound 0.03 µM) | relative viability (Omipalisib + Linsitinib; first compound 0.0003 µM) | relative viability (Omipalisib + Linsitinib; first compound 0.003 µM) | relative viability (Omipalisib + Linsitinib; first compound 0.03 µM) | relative viability (Omipalisib + Trametinib; first compound 0.0003 µM) | relative viability (Omipalisib + Trametinib; first compound 0.003 µM) | relative viability (Omipalisib + Trametinib; first compound 0.03 µM)
1 | NCI-H2405 | 0.852 | 0.769 | 0.408 | 1.01 | 0.756 | 0.39 | 1.12 | 0.718 | 0.444 | 0.401 | 0.285 | 0.184 | 0.931 | 0.68 | 0.387 | 0.486 | 0.37 | 0.271
2 | NCI-H3122 | 0.258 | 0.231 | 0.159 | 0.942 | 0.802 | 0.522 | 0.214 | 0.192 | 0.202 | 0.371 | 0.459 | 0.314 | 1.11 | 0.699 | 0.392 | 0.185 | 0.137 | 0.119
3 | PC-3 [JPC-3] | 0.922 | 1 | 0.889 | 1.03 | 1.03 | 0.856 | 1.03 | 1.12 | 0.89 | 0.475 | 0.477 | 0.414 | 0.962 | 0.976 | 0.92 | 0.738 | 0.664 | 0.439
4 | PC-14 | 0.855 | 0.912 | 0.799 | 0.904 | 0.961 | 0.967 | 0.151 | 0.155 | 0.161 | 0.537 | 0.639 | 0.368 | 0.954 | 0.931 | 0.794 | 0.807 | 0.682 | 0.243
5 | RERF-LC-KJ | 0.736 | 0.814 | 0.679 | 0.786 | 0.58 | 0.594 | 0.47 | 0.439 | 0.414 | 0.416 | 0.371 | 0.28 | 0.883 | 0.716 | 0.697 | 0.769 | 0.635 | 0.413
6 | SK-LU-1 | 0.91 | 0.712 | 0.515 | 0.869 | 0.662 | 0.479 | 1.04 | 0.834 | 0.751 | 0.47 | 0.299 | 0.273 | 1.03 | 1 | 0.679 | 0.411 | 0.36 | 0.253
7 | SK-MES-1 | 0.954 | 0.656 | 0.611 | 0.73 | 0.461 | 0.344 | 0.994 | 0.744 | 0.376 | 0.66 | 0.618 | 0.428 | 1.02 | 0.785 | 0.69 | 0.512 | 0.419 | 0.285
8 | SW 1573 | 0.812 | 0.628 | 0.379 | 0.693 | 0.595 | 0.401 | 0.568 | 0.549 | 0.366 | 0.238 | 0.227 | 0.169 | 0.777 | 0.476 | 0.465 | 0.441 | 0.373 | 0.226
9 | UMC-11 | 0.491 | 0.588 | 0.434 | 1.04 | 0.803 | 0.795 | 0.717 | 0.63 | 0.648 | 0.338 | 0.329 | 0.316 | 0.953 | 0.838 | 0.694 | 0.612 | 0.359 | 0.36
